Like-named read-outs stand apart in the source and are kept apart here.
System: HCMV
Format: cell-based
Method: In example herpesvirus PRM assay methods shown herein, cell pellets were lysed in 2% SDS, 100 mM NaCl, 0.5 mM EDTA, 50 mM Tris, pH 8.2, and 50 μg of protein was reduced and alkylated with 25 mM TCEP and 50 mM CAM respectively for 20 min at 70° C. Proteins were then precipitated via methanol chloroform precipitation (Wessel & Flugg, Anal Biochem. 138(1):141-143, 1984), resuspended in 50 mM HEPES, pH 8.2 and digested overnight with trypsin (50:1 protein:enzyme w/w ratio). Digested peptides were desalted by SDB-RPS StageTip as previously described (Lum et al., Cell Syst., 7(6):[…], 2018; Greco et al., Methods Mol Biol 1410:39-63, 2016; Federspiel & Cristea, Methods Mol Biol., 1977:115-143, 2019).
Peptides (1.0 μg on column) were analyzed by LC-MS/MS using a Dionex Ultimate 3000 UHPLC coupled online to an EASYSpray ion source and a Q Exactive HF. Peptides were separated on an EASYSpray C18 column (75 μm×25 cm) heated to 50° C. using a linear gradient of 5% B to 32% B over 60 min at a flow rate of 250 nL/min and were ionized at 1.7 kv. Mobile phase A consisted of 0.1% FA in H2O and mobile phase B consisted of 0.1% FA, 2.9% H2O in ACN.
The PRM method was controlled by a peptide inclusion list with retention time windows of 6 min for selected precursor ions.
The PRM assay was developed and analyzed using the open-source software Skyline (Maclean et al., Bioinformatics 26(7):966-968, 2010). Summed area under the curve of 3-4 transitions per peptide was used for quantitation. Targeted peptides were normalized to host protein loading control peptides. Peptide values for each sample were scaled to the average of each peptide across all runs. The average of multiple peptides was used as the inferred value for the protein measurement when more than one peptide was quantified (Federspiel et al., PLoS Biol. 17(9):e3000437. Doi: 10.1371/journal.pbio.3000437). PRM quantitation data were graphed using the Python Seaborn and Matplotlib libraries.
MRC5 primary human fibroblasts (HFs) (ATCC CCL-171) were used as the model system for HSV-1 and HCMV infections and were cultured in complete growth medium (DMEM supplemented with 10% fetal bovine serum and 1% penicillin-streptomycin antibiotics) at 37° C. and 5% CO2. iSLK.219 cells harboring latent KSHV (a gift from Dr. Britt Glaunsinger, University of California, Berkeley) were grown in complete growth medium supplemented with 500 μg/ml hygromycin (ThermoFisher Scientific, 10687010) at 37° C. and 5% CO2. All cells were used for experiments within a maximum of 10 passages.
Wild type HSV-1 strain 17+ (a gift from Beate Sodeik, Hannover Medical School, Hannover, Germany) was propagated as previously described (Diner et al., 2015). Briefly, PO stocks were generated by electroporating pBAC-HSV-1 into U-2 OS cells. […] In a similar manner, wild type HCMV strain AD169 was produced from BAC electroporation into HFs and working stocks were propagated by infecting HFs at a low level. In both cases, cell-associated virus was released by sonication, combined with supernatant virus, then concentrated by ultracentrifugation (20,000 rpm, 2 hours, 4° C. with SW28 swinging bucket rotor [Beckman Coulter]) over a 10% ficoll (HSV-1) or 20% sorbitol (HCMV) cushion. Virus stock titers were determined by plaque assay for HSV-1 or tissue culture infectious dose (TCID50) for HCMV and infections were performed at a multiplicity of infection (MOI) of 3.
12 hours prior to virus infection or reactivation, cells were treated with either the small molecule drug or DMSO/PBS control at an equivalent volume. […] For infection cycles lasting longer than 24 hours, small molecule drugs were re-added to the cell culture medium every 24 hours. Upon collection, cells were rinsed with PBS, scraped into a microcentrifuge tube, pelleted by centrifugation, and rinsed again with PBS.

Nc1ccn(C[C@@H](CO)OCP(=O)(O)O)c(=O)n1 [CDV, cidofovir]
gB (P06473) protein, numerical value of heatmap FIG. 6C (DE, timepoint 96): 0.9959 | sp|P09710|IR01_HCMVA (P09710) protein, numerical value of heatmap FIG. 6C (DE, timepoint 96): 0.4967 | CVC2 (P16726) protein, numerical value of heatmap FIG. 6C (DE, timepoint 120): 0.9588 | DBP (P17147) protein, numerical value of heatmap FIG. 6C (DE, timepoint 120): 2.035 | HELI (P16736) protein, numerical value of heatmap FIG. 6C (DE, timepoint 120): 1.128 | NEC1 (P16794) protein, numerical value of heatmap FIG. 6C (DE, timepoint 120): 1.121 | NEC2 (P16791) protein, numerical value of heatmap FIG. 6C (DE, timepoint 120): 1.797 | RIR1 (P16782) protein, numerical value of heatmap FIG. 6C (DE, timepoint 120): 1.313 | TRM1 (P16724) protein, numerical value of heatmap FIG. 6C (DE, timepoint 120): 1.312 | UL4 (P17146) protein, numerical value of heatmap FIG. 6C (DE, timepoint 120): 0.635 | UL26 (P16762) protein, numerical value of heatmap FIG. 6C (DE, timepoint 120): 1.564 | UL32 (P08318) protein, numerical value of heatmap FIG. 6C (DE, timepoint 120): 1.478 | UL34 (P16812) protein, numerical value of heatmap FIG. 6C (DE, timepoint 120): 0.9444 | UL35 (P16766) protein, numerical value of heatmap FIG. 6C (DE, timepoint 120): 1.133 | UL38 (P16779) protein, numerical value of heatmap FIG. 6C (DE, timepoint 120): 1.272 | UL44 (P16790) protein, numerical value of heatmap FIG. 6C (DE, timepoint 120): 1.235 | UL48 (P16785) protein, numerical value of heatmap FIG. 6C (DE, timepoint 120): 1.1 | UL54 (P08546) protein, numerical value of heatmap FIG. 6C (DE, timepoint 120): 1.415 | UL71 (P16823) protein, numerical value of heatmap FIG. 6C (DE, timepoint 120): 1.229 | UL78 (P16751) protein, numerical value of heatmap FIG. 6C (DE, timepoint 120): 0.9208 | UL84 (P16727) protein, numerical value of heatmap FIG. 6C (DE, timepoint 120): 1.217 | UL95 (P16801) protein, numerical value of heatmap FIG. 6C (DE, timepoint 120): 0.7275 | UL96 (P16787) protein, numerical value of heatmap FIG. 6C (DE, timepoint 120): 1.265 | UL97 (P16788) protein, numerical value of heatmap FIG. 6C (DE, timepoint 120): 1.137 | UL98 (P16789) protein, numerical value of heatmap FIG. 6C (DE, timepoint 120): 1.14 | UL102 (P16827) protein, numerical value of heatmap FIG. 6C (DE, timepoint 120): 1.353 | UL104 (P16735) protein, numerical value of heatmap FIG. 6C (DE, timepoint 120): 0.8938 | UL112/UL113 (P17151) protein, numerical value of heatmap FIG. 6C (DE, timepoint 120): 0.8795 | UL114 (P16769) protein, numerical value of heatmap FIG. 6C (DE, timepoint 120): 1.541 | UL119/UL118 (P16739) protein, numerical value of heatmap FIG. 6C (DE, timepoint 120): 0.8678 | UL128 (P16837) protein, numerical value of heatmap FIG. 6C (DE, timepoint 120): 1.193 | US8 (P09730) protein, numerical value of heatmap FIG. 6C (DE, timepoint 120): 1.14 | US9 (P09729) protein, numerical value of heatmap FIG. 6C (DE, timepoint 120): 1.342 | US12 (P09721) protein, numerical value of heatmap FIG. 6C (DE, timepoint 120): 0.661 | US13 (P09720) protein, numerical value of heatmap FIG. 6C (DE, timepoint 120): 0.7786 | US14 (P09719) protein, numerical value of heatmap FIG. 6C (DE, timepoint 120): 0.6977 | US18 (P69334) protein, numerical value of heatmap FIG. 6C (DE, timepoint 120): 0.679 | US22 (P09722) protein, numerical value of heatmap FIG. 6C (DE, timepoint 120): 1.167 | US23 (P09701) protein, numerical value of heatmap FIG. 6C (DE, timepoint 120): 1.024 | US24 (P09700) protein, numerical value of heatmap FIG. 6C (DE, timepoint 120): 1.043 | gB (P06473) protein, numerical value of heatmap FIG. 6C (DE, timepoint 120): 1.203 | sp|P09710|IR01_HCMVA (P09710) protein, numerical value of heatmap FIG. 6C (DE, timepoint 120): 0.7849 | IRS1 (P09715) protein, numerical value of heatmap FIG. 6C (IE, timepoint 24): 0.2 | TRS1 (P09695) protein, numerical value of heatmap FIG. 6C (IE, timepoint 24): 0.1103 | UL13 (P16755) protein, numerical value of heatmap FIG. 6C (IE, timepoint 24): 0.5131 | UL36 (P16767) protein, numerical value of heatmap FIG. 6C (IE, timepoint 24): 0.9885 | UL37 (P16778) protein, numerical value of heatmap FIG. 6C (IE, timepoint 24): 0.5466 | UL122 (P19893) protein, numerical value of heatmap FIG. 6C (IE, timepoint 24): 0.05364 | UL123 (P13202) protein, numerical value of heatmap FIG. 6C (IE, timepoint 24): 0.7324 | IRS1 (P09715) protein, numerical value of heatmap FIG. 6C (IE, timepoint 48): 0.5408 | TRS1 (P09695) protein, numerical value of heatmap FIG. 6C (IE, timepoint 48): 0.403 | UL13 (P16755) protein, numerical value of heatmap FIG. 6C (IE, timepoint 48): 0.7812
